Reference: patent publication US11944111B2, “Stabilizing sorbic acid in beverage syrup” (PepsiCo, Inc., priority 2015, dated 2024)
Where two headings read alike, the source gives them in different places.

Key:
[1] = UV-vis 263 nm, saturated solution
Excerpt: According to the Lambert-Beer Law, the concentration of sorbic acid is proportional to absorption intensity (Abs(Intesity)=K [Sorbic Acid]).

[2] = cited from earlier work
[3] = aqueous solution, pH between 2.5 and 4, about 20 C

SMILES: C/C=C/C=C/C(=O)[O-].[K+] [Potassium Sorbate]
- Abs (pH 2.5) ([1]; aged at 40 F. 0 day): 1.644
- Abs (pH 2.5) ([1]; aged at 40 F. 7 days): 1.357
- Abs (pH 3.0) ([1]; aged at 40 F. 7 days): 1.24
- Stability (crystals) (aged at 40 F. 0 day): no crystals
- Stability (crystals) (aged at 40 F. 7 days): lot of crystals

SMILES: C/C=C/C=C/C(=O)O [sorbic acid]
- solubility of sorbic acid in high acid syrup ([2]; 60% brix syrup): 0.08%
- sorbate concentration at which sorbic acid precipitation begins [2, 3]: about 500 ppm
- sorbate concentration at which the tendency to precipitate is clear [2, 3]: 1300 ppm
